In article PMC10607100, “Anticancer and Antiphytopathogenic Activity of Fluorinated Isatins and Their Water-Soluble Hydrazone Derivatives” (International Journal of Molecular Sciences, 2023):
Where two headings read alike, the source gives them in different places.

Legend:
Micrococcus luteus B-109 = test: Agar-well diffusion, bactericidal activity; type: cell-based; settings: Micrococcus luteus
Method in brief: (§1)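 Bacteria spread on agar (BP medium; GYCa for X. campestris; pH 7.2–7.4) with 6-mm wells, each receiving 150 μL compound solution. Cultures grown at 28 °C; growth-inhibition zone width measured after 36–40 h.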

[1] = test system: Pectobacterium atrosepticum 1043; test: Agar-well diffusion, bactericidal activity; type: cell-based; settings: Pectobacterium atrosepticum, 1043, 2 mM/L
Method in brief: as §1

[2] = test system: Pectobacterium carotovorum subsp. carotovorum MI; test: Agar-well diffusion, bactericidal activity; type: cell-based; settings: Pectobacterium carotovorum, 2 mM/L
Method in brief: as §1

[3] = test system: Pseudomonas fluorescens EL-2.1; test: Agar-well diffusion, bactericidal activity; type: cell-based; settings: Pseudomonas fluorescens, EL2.1, 2 mM/L
Method in brief: as §1

[4] = test system: Xanthomonas campestris B-610; test: Agar-well diffusion, bactericidal activity; type: cell-based; settings: Xanthomonas campestris
Method in brief: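 Agar-well diffusion on GYCa agar (pH 7.2–7.4) seeded with bacterial suspension; 150 μL compound solution placed in 6-mm wells. Inhibition zone width measured after 36–40 h incubation.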

[5] = test system: five representative phytopathogens; test: Agar-well diffusion, bactericidal activity over the panel of phytopathogens; type: cell-based
Method in brief: as §1

[6] = test system: Fusarium oxysporum IBPPM 543; test: Mycelial radial growth inhibition; type: cell-based; settings: Fusarium oxysporum; for inhibition of growth at 1 µM: 1 nmol/mL; for inhibition of growth at 1 µM / inhibition of growth at 5 µM / inhibition of growth at 20 µM / inhibition of growth at 40 µM: read-out: Inhibition value, I (%); for inhibition of growth at 5 µM: 5 nmol/mL; for inhibition of growth at 20 µM: 20 nmol/mL; for inhibition of growth at 40 µM: 40 nmol/mL
Method in brief: (§2)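 Compounds mixed into molten GPY agar at various concentrations; centre inoculated with a 5-mm mycelial plug from 10-day cultures and incubated at 27 °C. Colony diameter compared with untreated control until control plate was covered (usually 12 days); ≥4 replicates in two experiments.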

[7] = test system: Phytophthora cactorum VKM F-985; test: Mycelial radial growth inhibition; type: cell-based; settings: for inhibition of growth at 2 µM: 2 nmol/mL; for inhibition of growth at 2 µM / inhibition of growth at 3 µM / inhibition of growth / inhibition of growth at 40 µM / inhibition of growth at 50 µM: read-out: Inhibition value, I (%); for inhibition of growth at 3 µM: 3 nmol/mL; for inhibition of growth: 27 nmol/mL; for inhibition of growth at 40 µM: 40 nmol/mL; for inhibition of growth at 50 µM: 50 nmol/mL
Method in brief: as §2

[8] = Table S3, read-out: Inhibition zone width (mm), not less
[9] = IBPPM543, 72 h, age of the fungus 3 days
[10] = IBPPM543, 120 h, age of the fungus 5 days
[11] = IBPPM543, 168 h, age of the fungus 7 days
[12] = IBPPM543, 216 h, age of the fungus 9 days
[13] = Phytophthora cactorum, 72 h, age of the fungus 3 days
[14] = Phytophthora cactorum, 120 h, age of the fungus 5 days
[15] = Phytophthora cactorum, 168 h, age of the fungus 7 days
[16] = Phytophthora cactorum, 216 h, age of the fungus 9 days

In the case of `O=C(C[n+]1ccccc1)NN=C1C(=O)N(Cc2ccccc2F)c2ccc(F)cc21.[Cl-]` [Compound 5a, 1-(2-(2-(5-Fluoro-1-(2-fluorobenzyl)-2-oxoindolin-3-ylidene)hydrazinyl)-2-oxoethyl)pyridin-1-ium chloride], the zone of inhibition at 2000 µM (Micrococcus luteus B-109; B109, 2 mM/L, average of 3 experiments, read-out: width of the inhibition zone (mm), M. luteus) is reported as 4 mm, the zone of inhibition at 2000 µM (Micrococcus luteus B-109; B109, Table S3, 2 mM/L, read-out: Inhibition zone width (mm), not less) is reported as no less than 4 mm and the zone of inhibition at 2000 µM ([1]; average of 3 experiments, read-out: width of the inhibition zone (mm), P. atrosepticum) is reported as 6 mm. For the same compound, the zone of inhibition at 2000 µM [1, 8] was no less than 6 mm, the zone of inhibition at 2000 µM ([2]; average of 3 experiments, read-out: width of the inhibition zone (mm), P. carotovorum subsp. carotovorum) was 3 mm and the zone of inhibition at 2000 µM [2, 8] was no less than 3 mm. The zone of inhibition at 2000 µM ([3]; average of 3 experiments, read-out: width of the inhibition zone (mm), Ps. fluorescens) was 4 mm, the zone of inhibition at 2000 µM [3, 8] was no less than 4 mm and the zone of inhibition at 2000 µM ([4]; B610, 2 mM/L, average of 3 experiments, read-out: width of the inhibition zone (mm), X. campestris) was 3.5 mm. The zone of inhibition at 2000 µM ([4]; B610, Table S3, 2 mM/L, read-out: Inhibition zone width (mm), not less) was no less than 3 mm, the zone of inhibition at 2000 µM ([5]; 36 h, 2 mM solutions, dependent on the test system used, read-out: inhibition zone width (mm), range over the test systems) was 3 to 6 mm and the “bactericidal activity” value ([5]; Table S2) was “moderate bactericidal activity”. For the same compound, the inhibition of growth at 1 µM [6, 9] was 34%, the inhibition of growth at 5 µM [6, 9] was 39% and the inhibition of growth at 20 µM [6, 9] was 41%. The inhibition of growth at 40 µM [6, 9] was 52%, the EC50 ([6]; IBPPM543, 120 h, day 5, read-out: EC50, µg/mL at Day 5, F. oxysporum) was 13.8 µg/mL and the inhibition of growth at 1 µM [6, 10] was 25%. For the same compound, the inhibition of growth at 5 µM [6, 10] was 31%, the inhibition of growth at 20 µM [6, 10] was 45% and the inhibition of growth at 40 µM [6, 10] was 54%. For the same compound, the inhibition of growth at 1 µM [6, 11] was 20%, the inhibition of growth at 5 µM [6, 11] was 23% and the inhibition of growth at 20 µM [6, 11] was 42%. For the same compound, the inhibition of growth at 40 µM [6, 11] was 51%, the inhibition of growth at 1 µM [6, 12] was 7% and the inhibition of growth at 5 µM [6, 12] was 18%. The inhibition of growth at 20 µM [6, 12] was 23%, the inhibition of growth at 40 µM [6, 12] was 36% and the “antagonistic effect superior to that of N-cetylpyridinium chloride” value ([7]; 5 days of growth) was 2.3 times. The “antagonistic effect superior to that of fludioxonil” value ([7]; 5 days of growth) was 2.0 times, the inhibition of growth at 2 µM [7, 13] was 26% and the inhibition of growth at 3 µM [7, 13] was 32%. The inhibition of growth [7, 13] was 40%, the inhibition of growth at 40 µM [7, 13] was 47% and the inhibition of growth at 50 µM [7, 13] was 52%. It also gave an EC50 ([7]; Phytophthora cactorum, 120 h, day 5, read-out: EC50, µg/mL at Day 5, P. cactorum) of 15 µg/mL, an inhibition of growth at 2 µM [7, 14] of 20% and an inhibition of growth at 3 µM [7, 14] of 32%. It also gave an inhibition of growth [7, 14] of 44%, an inhibition of growth at 40 µM [7, 14] of 53% and an inhibition of growth at 50 µM [7, 14] of 62%. The inhibition of growth at 2 µM [7, 15] was 15%, the inhibition of growth at 3 µM [7, 15] was 28% and the inhibition of growth [7, 15] was 31%. The inhibition of growth at 40 µM [7, 15] was 43%, the inhibition of growth at 50 µM [7, 15] was 45% and the inhibition of growth at 2 µM [7, 16] was 8%. For the same compound, the inhibition of growth at 3 µM [7, 16] was 19%, the inhibition of growth [7, 16] was 25% and the inhibition of growth at 40 µM [7, 16] was 36%. The inhibition of growth at 50 µM [7, 16] was 38%, the “EC50, µg/mL at Day 5, P. cactorum” value ([7]; day 5) was 15.12 µg/mL and the melting point was 180 to 182 °C.
